Test results from US20190389841A1, “COMPOUNDS FOR TREATMENT OF TRIPLE NEGATIVE BREAST CANCER AND OVARIAN CANCER” (UNIVERSITY OF TENNESSEE RESEARCH FOUNDATION, priority 2018, published 2019).
Where two headings read alike, the source gives them in different places.

Key:
Brain penetration = format: in vivo
MDA-MB-468 [1] = assay: Colony formation assay; format: cell-based, human; conditions: 8 nM, MDA-MB-468 cells
Description: (§1) Colony formation assay. […] The medium of each group was renewed once a week. […] The morphology of colonies was captured under a microscope and colony area was quantified using ImageJ software (NIH, Bethesda, Md.). The drug treatment was performed in triplicate.

MDA-MB-231 cells [2] = assay: Scratch assay (cell migration); format: cell-based, human; conditions: 16 nM
Description: Cell migration was also analyzed by the scratch assay. […] The following day, a scratch was made in the cell monolayer by using a sterile 200-μl pipette tip. […] After 12 h, 24 h and 48 h, the wound width was determined and imaged with Evos Fl Imaging System (Life Technologies, Carlsbad, Calif.). The extent of wound closure was shown as the percentage of decrease of the original scratch width at each measured time point. Experiments were done in triplicate.

PC-3/TxR tumors = assay: Paclitaxel resistant prostate cancer xenograft; conditions: in vivo
[3] = tested on: paclitaxel resistant PC-3 cells; assay: In vitro cytotoxicity after 96 hours; format: cell-based
MDA-MB-231 = assay: Colony formation assay; format: cell-based, human; conditions: 8 nM
Description: as §1

[4] = tested on: MDA-MB-231 xenograft tumors; assay: H&E and IHC analysis of orthotopic TNBC tumors; format: in vivo, NSG mice; conditions: 12.5 mg/kg
[5] = tested on: TNBC spontaneous lung metastasis; assay: Spontaneous lung metastasis in orthotopic TNBC model; format: in vivo, mice; conditions: 12.5 mg/kg
MDA-MB-468 [6] = assay: cells; conditions: Homo sapiens
MDA-MB-231 xenografts = assay: Orthotopic TNBC xenograft model, 18 days
MDA-MB-231 cells [7] = assay: Experimental lung metastasis model (tail vein); conditions: 10 mg/kg, 22 days of treatment
[8] = after 48 hours, MDA-MB-231 as printed

COc1cc(C(=O)c2csc(Nc3ccc4[nH]ccc4c3)n2)cc(OC)c1OC [Compound 55, (2-(1H-indol-5-ylamino)thiazol-4-yl)(3,4,5-trimethoxyphenyl)methanone]
Kp at 4 h (Brain penetration; brain, 4 h after oral treatment, read-out: Brain/plasma concentration ratio): ~0.2 | Brain/plasma concentration ratios over time (Brain penetration; in vivo): remained relatively constant over time | brain penetration (Brain penetration; in vivo): high brain penetration

COc1cc2c(c(OC)c1OC)-c1ccc(OC)c(=O)cc1[C@@H](NC(C)=O)CC2 [colchicine]
reductions in colony formation (MDA-MB-468 [1]): 51% | average migration rate, scratch assay (MDA-MB-231 cells [2]; after 24 hours): 67.3% | average migration rate, scratch assay (MDA-MB-231 cells [2]; [8]): 15.8%

CC(=O)O[C@@]12CO[C@@H]1C[C@H](O)[C@@]1(C)C(=O)[C@H](O)C3=C(C)[C@@H](OC(=O)[C@H](O)[C@@H](NC(=O)OC(C)(C)C)c4ccccc4)C[C@@](O)([C@@H](OC(=O)c4ccccc4)[C@H]21)C3(C)C [docetaxel]
efficacy in PC-3/TxR tumors (PC-3/TxR tumors): lack of efficacy | potency in paclitaxel resistant PC-3 cells [3]: lose potency

CC(=O)O[C@H]1C(=O)[C@@]2(C)[C@H]([C@H](OC(=O)c3ccccc3)[C@]3(O)C[C@H](OC(=O)[C@H](O)[C@@H](NC(=O)c4ccccc4)c4ccccc4)C(C)=C1C3(C)C)[C@]1(OC(C)=O)CO[C@@H]1C[C@@H]2O [paclitaxel]
relative percentage of colonies (MDA-MB-231): 27.5% | reductions in colony formation (MDA-MB-468 [1]): 7.4% | average migration rate, scratch assay (MDA-MB-231 cells [2]; after 24 hours): 13.3% | average migration rate, scratch assay (MDA-MB-231 cells [2]; [8]): 14.5% | necrotic area of tumors [4]: 41.5% | spontaneous lung metastasis, mice [5]: all eight mice had no metastasis | potency in paclitaxel resistant PC-3 cells [3]: lose potency | IC50 (MDA-MB-468 [6]; MDA-MB-468, read-out: IC50 (FIG. 37)): 4.61 nM | IC50 (MDA-MB-468 [6]; MDA-MB-468, read-out: IC50, cell viability): 4.61 nM | average final tumor weight (MDA-MB-231 xenografts; 12.5 mg/kg): 0.38 g | body weight during treatment (MDA-MB-231 xenografts; 18 days, paclitaxel 12.5 mg/kg): decreased mice body weight significantly | body weights and physical activities of mice (MDA-MB-231 cells [7]): slightly decreased | lung metastasis of TNBC (MDA-MB-231 cells [7]): significantly inhibited lung metastasis
